Experimental data from US20100168054A1, “Functionalized Beta 1,6 Glucosamine Disaccharides and Process for Their Preparation” (OM PHARMA, priority 2006, published 2010).
Like-named read-outs stand apart in the source and are kept apart here.

Tests used:
rat mast cells = assay: Histamine secretion (compound 48/80-stimulated); format: cell-based; details: compound 48/80 0.1 μg/ml, 2 min, 37° C.
Source text: Using an in vitro rat model of mast cell degranulation (proposed by the CRO CEREP, catalog number 2006: 771-c), we aimed to investigate whether the synthetic molecules OM-174-DP (compound 1b) OM-174-MP-PD (19), OM-174-MP-EP (33), OM-174-MP-CM (35c) and OM-174-MP-PR (17) would inhibit histamine secretion by compound 48/80-stimulated mastocytes. The protocol used is briefly summarized below:
The results are expressed as a percent of control specific activity ((measured specific activity/control specific activity)×100) obtained in the presence of the test compounds. The IC50 values (concentration causing a half-maximal inhibition of control specific activity) were determined by non-linear regression analysis of the inhibition curves generated with mean replicate values using Hill equation curve fitting (Y=D+[(A−D)/(1+(C/C50)nH)], where Y=specific activity, D=minimum specific activity, A=maximum specific activity, C=compound concentration, C50=IC50, and nH=slope factor). This analysis was performed using a software developed at Cerep (Hill software) and validated by comparison with data generated by the commercial software SigmaPlot® 4.0 for Windows® (© 1997 by SPSS Inc.).
In each experiment, the reference compound was tested concurrently with the test compounds in order to assess the assay suitability. It was tested at several concentrations (for IC50 value determination), and the data were compared with historical values determined at CEREP. The assay was rendered valid if the suitability criteria were met, in accordance with the corresponding Standard Operating Procedure.

[1] = test system: human peripheral blood mononuclear cells (PBMC); assay: IL-6 secretion by human PBMC (ELISA); format: cell-based; details: for IL6: 24 h
Protocol: (§1) Peripheral blood from healthy donors (Centre de transfusion, Hôpital Universitaire, Geneva) was centrifuged to get the buffy coat. The buffy coat was mixed with Hanks' balanced saline solution (HBSS, Sigma, Buchs, Switzerland), layered over Ficoll Paque Plus (Amersham Pharmacia) to 1.077 g/mL and centrifuged (2800 rpm, 20° C., 25 min). Cells harvested from the interphase were washed twice in HBSS at 800 rpm for 15 min at room temperature and the pelleted cells were resuspended in HBSS. The cell counts were performed using a Neubauer cell. All cell cultures were performed in RPMI-1640 medium supplemented with penicillin (100 U/mL), streptomycin (100 μg/mL), L-glutamine (2 mmol/L) and 10% fetal calf serum (FCS), all obtained from Sigma. For in vitro stimulation, the cells were cultured at a concentration of 1×10^6 viable cells/well.
(§2) PBMC were incubated at 37° C. and under 5% CO2 atmosphere with the controls (see below) and with the products of the invention at 1, 5, and 20 μg/mL for IL-6, and at 0.2, 2, and 20 μg/mL for TNF-α secretion. Medium: RPMI alone.
(§3) The surpernatants of the cultures were harvested after 24 h and the concentration of IL-6 and TNF-α were measured by an enzyme-linked immunosorbent assay (ELISA) (Human IL-6 and TNF-α ELISA Set, BD OptEIA, San Diego, USA), according to the manufacturer instructions. The detection limits were 10 and 8 pg/mL respectively.
PBMC are incubated at 37° C. and under 5% CO2 atmosphere with the products of the invention.
The supernatants of the cultures are harvested after 24 h and the concentration of IL-6 was measured by an enzyme-linked immunosorbent assay (ELISA) (Human IL-6 ELISA Set, BD OptEIA, San Diego, USA), according to the manufacturer instructions. The detection limit was 10 pg/mL.

[2] = test system: human peripheral blood mononuclear cells (PBMC); assay: TNF-α secretion by human PBMC (ELISA); format: cell-based; details: for TNF-α: 24 h; for TNF-α induction (in words): 0.2, 2, 20 μg/ml
Protocol: as §1, §2, §3

[3] = test system: THP1-Blue cells (express naturally both TLR2 and TLR4); assay: THP1-Blue NF-κB/AP-1-inducible SEAP reporter; format: cell-based, human; details: 48 h
Protocol: A first series of experiment was performed on THP-1 cells, which express naturally both TLR2 and TLR4. THP-1 cells are human peripheral blood monocytic cells. Monocytes play a key role in innate immunity and express most TLRs at various levels. As for the primary cells, THP-1 cells activate NF-κB and other transcription factors in response to TLR ligands
To facilitate analysis of TLR response in monocytes, InvivoGen (Toulouse, France) provides THP-1 clones stably transfected with an NF-κB-inducible reporter system, called THP1-Blue™. THP-1 Blue cells were stably transfected with a reporter plasmid expressing a secreted embryonic alkaline phosphatase (SEAP) gene under the control of a promoter inducible by several transcription factors such as NF-κB and AP-1. Upon TLR stimulation, THP1-Blue™ cells activate transcription factors and subsequently the secretion of SEAP which is easily detectable when using QUANTI-Blue\u2122a medium that turns purple/blue in the presence of SEAP.
The cells were stimulated with the controls and compounds of the invention according to manufacturer's instructions. Results: Increased OD at 625 Nm after 48 Hours: The results for the controls (negative=LPS K12CD25 ultrapure, a TLR4 agonist; and PAM3CSK4=positive, a TLR2 agonist) are provided in the table below. The results (expressed as OD of arbitrary units) show the mean values (from duplicate measures) of Optical density read at 625 nm, 48 h after stimulation at 37° C. with the controls (up to 1000 ng/ml): […]

TLR2 = biological target: T1, TLR2 (Homo sapiens, UniProt O60603); assay: HEK-TLR2 IL-8 secretion; format: cell-based; details: 24 h
T1 construct: host or cells: HEK293
T1 sequence (O60603 21-784): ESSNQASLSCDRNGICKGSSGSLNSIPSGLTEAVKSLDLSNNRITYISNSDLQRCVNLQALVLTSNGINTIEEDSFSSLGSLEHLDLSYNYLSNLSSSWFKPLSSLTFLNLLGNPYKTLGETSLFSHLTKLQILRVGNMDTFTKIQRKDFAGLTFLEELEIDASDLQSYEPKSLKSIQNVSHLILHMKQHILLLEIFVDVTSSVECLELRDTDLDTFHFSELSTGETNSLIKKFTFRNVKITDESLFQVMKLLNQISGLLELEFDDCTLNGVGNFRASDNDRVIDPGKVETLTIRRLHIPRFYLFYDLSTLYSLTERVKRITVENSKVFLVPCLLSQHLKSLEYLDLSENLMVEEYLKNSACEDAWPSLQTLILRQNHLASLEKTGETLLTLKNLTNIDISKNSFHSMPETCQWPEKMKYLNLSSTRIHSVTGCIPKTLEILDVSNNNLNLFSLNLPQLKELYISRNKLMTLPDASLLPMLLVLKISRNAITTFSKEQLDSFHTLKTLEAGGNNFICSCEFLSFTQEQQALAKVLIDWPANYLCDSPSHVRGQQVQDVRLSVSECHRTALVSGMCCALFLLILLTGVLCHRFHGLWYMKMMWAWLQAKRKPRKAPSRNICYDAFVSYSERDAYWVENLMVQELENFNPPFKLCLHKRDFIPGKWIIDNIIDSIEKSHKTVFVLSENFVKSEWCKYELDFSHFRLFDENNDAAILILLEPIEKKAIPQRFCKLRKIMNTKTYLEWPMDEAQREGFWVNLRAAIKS
Source text: (§4) The HEK293 cell line was chosen for its null or low basal expression of the TLR genes. These cells enable efficient monitoring of TLR activity using ELISA analysis such as IL-8 titration or reporter-based systems that monitor TLR-induced NF-κB activation. HEK-TLR2 cells (Invivogen, Toulouse, France) are engineered HEK293 cells stably transfected with multiple genes from the TLR2 pathway that include TLR2 and genes participating in the recognition or involved in the signaling cascade. These cells secrete IL-8 after TLR2 stimulation. The experiments were performed according to manufacturers' instructions. Briefly, 2×10^4 cells/well (200 ul RPMI) are incubated at 37° C. during 3 days (5% CO2). The medium is removed, and 90 ul RPMi+5% FCS is added to the wells Then the agonists and controls are added (10 ul/well). The cells return to the incubator for 24 hours. The supernatants are collected and the IL-8 ELISA is performed according to manufacturer's instructions

TLR2 and CD14 = biological target: T2, TLR2 and CD14 (Homo sapiens, UniProt O60603); assay: HEK-TLR2-CD14 IL-8 secretion; format: cell-based; details: 24 h
T2 construct: expressed in transfected cells; host or cells: HEK (HEK-TLR2-CD14 cell line)
T2 sequence (O60603 21-784): as above
Source text: as §4, with “manufacturer's instructions These preliminary results were confirmed in another cell line expressing concomitantly TLR2 and CD14. The procedure used is similar to the one described just above.” for “manufacturer's instructions”

TLR4 = biological target: T3, TLR4 (Homo sapiens, UniProt O00206+Q9Y6Y9); assay: HEK-MD2-TLR4-CD14 IL-8 secretion; format: cell-based; details: 24 h
T3 construct: expressed in transfected cells; host or cells: HEK293
T3 sequence (O00206 24-839): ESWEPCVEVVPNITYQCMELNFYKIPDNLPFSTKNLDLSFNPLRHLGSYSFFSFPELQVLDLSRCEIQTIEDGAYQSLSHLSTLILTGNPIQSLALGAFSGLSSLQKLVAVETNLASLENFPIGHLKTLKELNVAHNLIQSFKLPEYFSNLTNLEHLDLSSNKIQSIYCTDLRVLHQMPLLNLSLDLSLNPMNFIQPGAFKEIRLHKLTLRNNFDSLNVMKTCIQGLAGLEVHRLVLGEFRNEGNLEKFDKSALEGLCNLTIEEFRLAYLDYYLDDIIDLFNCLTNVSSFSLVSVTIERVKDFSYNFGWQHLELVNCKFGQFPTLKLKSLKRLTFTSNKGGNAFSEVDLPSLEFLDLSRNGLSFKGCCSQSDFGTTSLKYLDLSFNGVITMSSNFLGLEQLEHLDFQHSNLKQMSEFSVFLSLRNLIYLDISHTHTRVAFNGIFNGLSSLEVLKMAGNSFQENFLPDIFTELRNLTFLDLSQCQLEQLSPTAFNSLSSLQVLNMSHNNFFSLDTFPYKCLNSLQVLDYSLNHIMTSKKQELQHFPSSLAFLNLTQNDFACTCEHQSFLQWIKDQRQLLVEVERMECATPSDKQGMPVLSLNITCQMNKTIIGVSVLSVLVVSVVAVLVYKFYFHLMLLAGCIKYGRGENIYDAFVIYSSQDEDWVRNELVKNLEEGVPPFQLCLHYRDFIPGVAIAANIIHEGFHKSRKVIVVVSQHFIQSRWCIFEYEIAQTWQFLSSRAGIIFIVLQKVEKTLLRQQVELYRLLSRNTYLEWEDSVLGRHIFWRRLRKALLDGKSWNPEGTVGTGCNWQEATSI
T3 sequence (Q9Y6Y9 17-160 limits assumed): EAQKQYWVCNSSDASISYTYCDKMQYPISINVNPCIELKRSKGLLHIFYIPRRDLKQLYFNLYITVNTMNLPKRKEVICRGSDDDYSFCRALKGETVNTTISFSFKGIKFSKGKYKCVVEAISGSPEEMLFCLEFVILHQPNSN
Source text: as §4
HEK-MD2-TLR4-CD14 are highly sensitive to LPS. They were obtained by stable transfection of HEK293 cells with the TLR4, MD2 and CD14 genes and an NF-κB-inducible reporter system. They secrete IL-8. We used the same experimental procedure as for the other HEK cell lines described above.

`O=C(O)c1cc(=O)c2c(OCC(O)COc3cccc4oc(C(=O)O)cc(=O)c34)cccc2o1` [SCG, reference compound] showed an IC50 (rat mast cells; read-out: IC50, mean of the reference (5 different tests)) of 8.6 µM.

`CCCCCCCCCCCC(=O)O[C@H](CCCCCCCCCCC)CC(=O)NC1C(OCC2OC(OCCCCCCN)C(NC(=O)C[C@H](O)CCCCCCCCCCC)C(O)C2O)OC(CO)C(OP(=O)(O)O)C1O` (stereo partly drawn) [compound 26, 6-Aminohexyl-2-deoxy-6-O-[2-deoxy-4-O-(dihydroxyphosphoryl)-2-[(R)-3-dodecanoyloxytetradecanoylamino]-β-D-glucopyranosyl]-2-[(R)-3-hydroxytetradecanoylamino]-β-D-glucopyranoside] was tested, and the IL6 ([1]; 1 μg/ml) was 269.0 pg/mL, the IL6 ([1]; 5 μg/ml) was 1923.2 pg/mL and the IL6 ([1]; 20 μg/ml) was 8349.3 pg/mL. For the same compound, the “IL-6 secretion (in words)” value ([1]; 1, 5, 20 μg/ml) was “able to induce IL-6 secretion”, the TNF-α ([2]; 0.2 μg/ml) was 29.3 pg/mL and the TNF-α ([2]; 2 μg/ml) was 1264 pg/mL. For the same compound, the TNF-α ([2]; 20 μg/ml) was 7016 pg/mL and the “TNF-α induction (in words)” value [2] was “induced high levels of TNF-α”.

`CCCCCCCCCCCC(=O)O[C@H](CCCCCCCCCCC)CC(=O)NC1C(OCC2OC(OCCO)C(NC(=O)C[C@H](O)CCCCCCCCCCC)C(O)C2O)OC(CO)C(OP(=O)(O)O)C1O` (stereo partly drawn) [compound 32, 2-Hydroxyethyl-2-Deoxy-6-O-[2-deoxy-4-O-(dihydroxyphosphoryl)-2-[(R)-3-dodecanoyloxytetradecanoylamino]-β-D-glucopyranosyl]-2-[(R)-3-hydroxytetradecanoylamino]-α-D-glucopyranoside] was tested, and the TNF-α ([2]; 0.2 μg/ml) was 5.5 pg/mL, the TNF-α ([2]; 2 μg/ml) was 7.8 pg/mL and the TNF-α ([2]; 20 μg/ml) was 251 pg/mL. For the same compound, the “TNF-α induction (in words)” value [2] was “induced high levels of TNF-α”.

In the case of `CCCCCCCCCCCC(=O)O[C@H](CCCCCCCCCCC)CC(=O)N[C@H]1[C@H](OC[C@H]2O[C@H](OCC(=O)O)[C@H](NC(=O)C[C@H](O)CCCCCCCCCCC)[C@@H](O)[C@@H]2O)O[C@H](CO)[C@@H](OP(=O)(O)O)[C@@H]1O` [compound 35c, 2-Carboxymethyl-2-Deoxy-6-O-[2-deoxy-4-O-(dihydroxyphosphoryl)-2-[(R)-3-dodecanoyloxytetradecanoylamino]-β-D-glucopyranosyl]-2-[(R)-3-hydroxytetradecanoylamino]-α-D-glucopyranoside], the TNF-α ([2]; 0.2 μg/ml) is reported as 48 pg/mL, the TNF-α ([2]; 2 μg/ml) is reported as 502 pg/mL and the TNF-α ([2]; 20 μg/ml) is reported as 591 pg/mL. It also gave an IC50 (rat mast cells; read-out: IC50) of 0.32 µM.

`CCCCCCCCCCCCCCO[C@@H]1O[C@H](CO[C@@H]2O[C@H](CO)[C@@H](OP(=O)(O)O)[C@H](O)[C@H]2NC(=O)C[C@@H](CCCCCCCCCCC)OC(=O)CCCCCCCCCCC)[C@@H](O)[C@H](O)[C@H]1NC(=O)C[C@H](O)CCCCCCCCCCC` [compound 41c, Tetradecyl-2-Deoxy-6-O-[2-deoxy-4-O-(dihydroxyphosphoryl)-2-[(R)-3-dodecanoyloxytetradecanoylamino]-β-D-glucopyranosyl]-2-[(R)-3-hydroxytetradecanoylamino]-β-D-glucopyranoside] showed a TNF-α ([2]; 0.2 μg/ml) of 570 pg/mL, a TNF-α ([2]; 2 μg/ml) of 6036 pg/mL and a TNF-α ([2]; 20 μg/ml) of 9769 pg/mL. For the same compound, the “TNF-α induction (in words)” value [2] was “induced high levels of TNF-α”.

With PAM3CSK4 [reference compound] the “Optical density read at 625 nm, mean of duplicates” value (shortened to “Optical density read at 625 nm”) ([3]; 1 ng/ml) was 0.48 OD, the “Optical density read at 625 nm” value ([3]; 4 ng/ml) was 0.85 OD and the “Optical density read at 625 nm” value ([3]; 12 ng/ml) was 1.11 OD. The “Optical density read at 625 nm” value ([3]; 37 ng/ml) was 1.22 OD, the “Optical density read at 625 nm” value ([3]; 111 ng/ml) was 1.30 OD and the “Optical density read at 625 nm” value ([3]; 333 ng/ml) was 1.38 OD. The “Optical density read at 625 nm” value ([3]; 1000 ng/ml) was 1.35 OD, the “IL-8 secretion, mean” value (TLR2; 1 ng/ml) was 1.84 pg/mL and the “IL-8 secretion, mean” value (TLR2; 4 ng/ml) was 3.89 pg/mL. For the same compound, the “IL-8 secretion, mean” value (TLR2; 12 ng/ml) was 9.12 pg/mL, the “IL-8 secretion, mean” value (TLR2; 37 ng/ml) was 18.33 pg/mL and the “IL-8 secretion, mean” value (TLR2; 111 ng/ml) was 23.93 pg/mL. For the same compound, the “IL-8 secretion, mean” value (TLR2; 333 ng/ml) was 28.24 pg/mL, the “IL-8 secretion, mean” value (TLR2; 1000 ng/ml) was 32.94 pg/mL and the “IL-8 secretion, mean” value (TLR2 and CD14; 1 ng/ml) was 1.33 pg/mL. For the same compound, the “IL-8 secretion, mean” value (TLR2 and CD14; 4 ng/ml) was 2.55 pg/mL, the “IL-8 secretion, mean” value (TLR2 and CD14; 12 ng/ml) was 6.78 pg/mL and the “IL-8 secretion, mean” value (TLR2 and CD14; 37 ng/ml) was 15.90 pg/mL. For the same compound, the “IL-8 secretion, mean” value (TLR2 and CD14; 111 ng/ml) was 22.64 pg/mL, the “IL-8 secretion, mean” value (TLR2 and CD14; 333 ng/ml) was 33.30 pg/mL and the “IL-8 secretion, mean” value (TLR2 and CD14; 1000 ng/ml) was 39.04 pg/mL. The “IL-8 secretion, mean” value (TLR4; 1 ng/ml) was 1.75 pg/mL, the “IL-8 secretion, mean” value (TLR4; 4 ng/ml) was 1.78 pg/mL and the “IL-8 secretion, mean” value (TLR4; 12 ng/ml) was 1.76 pg/mL. For the same compound, the “IL-8 secretion, mean” value (TLR4; 37 ng/ml) was 1.72 pg/mL, the “IL-8 secretion, mean” value (TLR4; 111 ng/ml) was 1.83 pg/mL and the “IL-8 secretion, mean” value (TLR4; 333 ng/ml) was 1.87 pg/mL. The “IL-8 secretion, mean” value (TLR4; 1000 ng/ml) was 2.17 pg/mL.
